Source: ChEMBL document CHEMBL4651402, “Screening of ~5500 FDA-approved drugs and clinical candidates for anti-SARS-CoV-2 activity” (2021)

Test system: SARS-CoV-2
Experiment: microbe, parasite or virus in culture
Details: Severe acute respiratory syndrome coronavirus 2, Vero C1008, 48 h

SMILES	IC50 [µM]	IC50 (read-out: pIC50 (converted)) [µM]
COC1C(OC(=O)/C=C/C=C/C=C/C=C/C(=O)O)CCC2(CO2)C1C1(C)OC1CC=C(C)C (configuration not stated)	> 20	> 20
Cc1ccccc1N1C(=O)c2cc(S(N)(=O)=O)c(Cl)cc2NC1C (configuration not stated) [METOLAZONE]	> 20	> 20
CCn1ccnc1CC1COc2ccccc2O1 (configuration not stated) [IMILOXAN]	> 20	> 20
CC12C=CC(=O)C=C1CCC1C2CCC2(C)C1CC[C@]2(C)O (some centres not stated)	> 20	> 20
CN1CCC(=C2c3ccccc3C=Cc3ccccc32)CC1 [CYPROHEPTADINE]	> 20	> 20
CC(C)N1CCN(c2ccc(N3CCN(c4ccc(OC[C@H]5OC[C@](Cn6cncn6)(c6ccc(F)cc6F)O5)cc4)CC3)cc2)C1=O (racemic) [PRAMICONAZOLE]	> 20	> 20
CCC(C)C(CC)C(N)=O (configuration not stated) [VALNOCTAMIDE]	> 20	> 20
N=C(N)Nc1ccc(C(=O)Oc2ccc3c(c2)OC[C@H]3CC(=O)N[C@@H](CC(=O)O)C(=O)O)cc1	> 20	> 20
CC(=O)CC(c1ccc([N+](=O)[O-])cc1)c1c(O)c2ccccc2oc1=O (configuration not stated) [ACENOCOUMAROL]	> 20	> 20
N[C@@H](CCC(=O)O)C(=O)O [GLUTAMIC ACID]	> 20	> 20
CCC(CC)CC1(C(=O)Nc2ccccc2SC(=O)C(C)C)CCCCC1 [DALCETRAPIB]	> 20	> 20
C#CCN[C@@H]1CCc2ccccc21 [RASAGILINE]	> 20	> 20
C=CCN1CCCC1CNC(=O)c1cc2nn[nH]c2cc1OC (configuration not stated) [ALIZAPRIDE]	> 20	> 20
CC(=O)C1(O)CCC2C3CC(C)C4=CC(=O)C=CC4(C)C3(F)C(O)CC21C (configuration not stated)	> 20	> 20
CCOCC(O)COc1ccc(NC(=O)CC[S+](C)C)cc1 (configuration not stated)	> 20	> 20
CCCC(CCC)C(N)=O [VALPROMIDE]	> 20	> 20
CC(C)(C)Cn1c(N)nc2ccc(-c3[nH]c(C(C)(C)C)nc3-c3ccc(F)cc3)nc21 [RALIMETINIB]	> 20	> 20
COC(c1ccccc1)(c1ccccc1)[C@H](Oc1nc(C)cc(C)n1)C(=O)O [AMBRISENTAN]	> 20	> 20
CC(NC(C)(C)C)C(=O)c1cccc(Cl)c1 (configuration not stated) [BUPROPION]	> 20	> 20
NC(CO)(CO)CO [TROMETHAMINE]	> 20	> 20
CC(C)(C)NC[C@H](O)COc1nsnc1N1CCOCC1 [TIMOLOL]	> 20	> 20

SMILES	IC50 [µM]	IC50 (read-out: pIC50 (converted)) [µM]
Cc1cc(NC(=O)C2=C(O)c3ccccc3S(=O)(=O)N2C)no1 [ISOXICAM]	> 20	> 20
CC12CCC3C(CCC4=CC(=O)C=CC43C)C1CCC(=O)O2 (configuration not stated)	> 20	> 20
NCc1ccc2c(c1)nc(CN1C(=O)C3(CC3)c3ccc(F)cc31)n2CCCC(F)(F)F [SISUNATOVIR]	> 20	> 20
O[C@@H]1[C@@H](O)[C@@H](O)CN2CC[C@@H](O)[C@H]12	> 20	> 20
COc1cc(N2CCC(N(C)C)CC2)ccc1Nc1ncc(Cl)c(Nc2ccccc2P(C)(C)=O)n1	> 20	> 20
CCCc1c(OCC(O)COc2ccc3c(=O)cc(C(=O)O)oc3c2CCC)ccc(C(C)=O)c1O (configuration not stated) [FPL-55712]	> 20	> 20
O=C(OOC(=O)c1ccccc1)c1ccccc1 [BENZOYL PEROXIDE]	> 20	> 20
CC[C@H](C)C(=O)O[C@H]1C[C@H](O)C=C2C=C[C@H](C)[C@H](CC[C@@H](O)C[C@@H](O)CC(=O)O)[C@H]21 [PRAVASTATIN]	> 20	> 20
Nc1ncc([N+](=O)[O-])s1	> 20	> 20
Cc1cc(C(=O)Nc2nc3cccc(Cl)c3n2[C@@H]2CCCCN(C(=O)/C=C/CN(C)C)C2)ccn1 [NAZARTINIB]	> 20	> 20
C[C@@H]1CN(c2c(F)c(N)c3c(=O)c(C(=O)O)cn(C4CC4)c3c2F)C[C@H](C)N1 [SPARFLOXACIN]	> 20	> 20
C[C@@H]1[C@@H]2Cc3ccc(O)cc3C1(C)CCN2C	> 20	> 20
Clc1ccc(CSC(Cn2ccnc2)c2ccc(Cl)cc2Cl)cc1 (configuration not stated) [SULCONAZOLE]	> 20	> 20
CN1CCC(=C2c3ccccc3CC(=O)c3sccc32)CC1 [KETOTIFEN]	> 20	> 20
COc1cc(NS(C)(=O)=O)ccc1Nc1c2ccccc2nc2ccccc12 [AMSACRINE]	> 20	> 20
CC[C@H]1CN2CCc3cc(OC)c(OC)cc3[C@@H]2C[C@@H]1C[C@H]1NCCc2cc(OC)c(OC)cc21 [EMETINE]	> 20	> 20
CCCCCCCCCCC(C)(C)C(=O)Nc1c(OC)cc(OC)cc1OC [CL-976]	> 20	> 20
FC(F)c1nc2ccccc2n1-c1nc(N2CCOCC2)nc(N2CCOCC2)n1 [ZSTK-474]	> 20	> 20
COCCOC(=O)C1=C(C)NC(C)=C(C(=O)OC/C=C/c2ccccc2)C1c1cccc([N+](=O)[O-])c1 (configuration not stated) [CILNIDIPINE]	> 20	> 20
CCCCC(C)(O)C/C=C/C1C(O)CC(=O)C1CC/C=C/CCC(=O)OC (configuration not stated)	> 20	> 20
CN1CC(=O)N2[C@@H](c3ccc4c(c3)OCO4)c3[nH]c4ccccc4c3C[C@@H]2C1=O	> 20	> 20

SMILES	IC50 [µM]	IC50 (read-out: pIC50 (converted)) [µM]
CN1CCN(CCCCN2C(=O)CN(/N=C/c3ccc(-c4ccc(Cl)cc4)o3)C2=O)CC1 [AZIMILIDE]	> 20	> 20
Cc1cc(=O)oc2cc(O)ccc12 [HYMECROMONE]	> 20	> 20
O=C(O)[C@H]1C2CCC(CC2)[C@@H]1Nc1nc(-c2c[nH]c3ncc(F)cc23)ncc1F [PIMODIVIR]	> 20	> 20
COc1ccc2[nH]c3c(c2c1)CCN=C3C	> 20	> 20
CN(C)C(=O)CCSC(SCCC(=O)O)c1cccc(/C=C/c2ccc3ccc(Cl)cc3n2)c1 (configuration not stated) [MK-571]	> 20	> 20
CC1=C2[C@H]3OC(=O)[C@@H](C)[C@@H]3CC[C@@]2(C)C=CC1=O [SANTONIN]	> 20	> 20
c1ccc(C2(N3CCCCC3)CCCCC2)cc1 [PHENCYCLIDINE]	> 20	> 20
CC(=O)[C@H]1CC[C@H]2[C@@H]3CCC4C[C@@H](O)CC[C@]4(C)[C@H]3CC[C@]12C (some centres not stated)	> 20	> 20
CCC(C)C1OC2(CCC1C)CC1CC(C/C=C(/C)C(OC3CC(OC)C(OC4CC(OC)C(O)C(C)O4)C(C)O3)C(C)/C=C\C=C3\COC4C(O)C(C)=CC(C(=O)O1)C34O)O2 (configuration not stated)	> 20	> 20
CC(=O)OC[C@@]1(O)C[C@@]23CC[C@@H]4c5ccoc5CC[C@@]4(C)[C@@H]2CC[C@@H]1C3 [CAFESTOL ACETATE]	> 20	> 20
C[N+](C)(CCOc1ccccc1)Cc1ccccc1 [BEPHENIUM]	> 20	> 20
CCN(CC)CCNC(=O)c1ccc(N)cc1 [PROCAINAMIDE]	> 20	> 20
CCC(=O)NC[C@@H]1C[C@H]1c1cccc2c1CCO2 [TASIMELTEON]	> 20	> 20
CC(C)CCCC(C)C1CCC2C3C=CC4=CC(=O)CCC4(C)C3CCC12C (configuration not stated)	> 20	> 20
COc1cc2c(cc1OC)[C@@]13CCN4CC5=CCO[C@H]6CC(=O)N2[C@H]1[C@H]6[C@H]5C[C@H]43 [BRUCINE]	> 20	> 20
CCCSc1nc(N[C@@H]2C[C@H]2c2ccc(F)c(F)c2)c2nnn([C@@H]3C[C@H](OCCO)[C@@H](O)[C@H]3O)c2n1 [TICAGRELOR]	> 20	> 20
CC[C@]1(O)C[C@@H]2CN(CCc3c([nH]c4ccccc34)[C@@](C(=O)OC)(c3cc4c(cc3OC)N(C)[C@H]3[C@@](O)(C(N)=O)[C@H](O)[C@]5(CC)C=CCN6CC[C@]43[C@@H]65)C2)C1 [VINDESINE]	> 20	> 20
O=C(N/N=C/c1ccc([N+](=O)[O-])o1)c1ccc(O)cc1 [NIFUROXAZIDE]	> 20	> 20
C[C@@](Cc1ccc(O)c(O)c1)(NN)C(=O)O [CARBIDOPA ANHYDROUS]	> 20	> 20
